Data set [1] has as its system cell–cell fusion between H9/HIV-1IIIB cells and MT-2 cells. The conditions noted are these: read-out: IC50, cell–cell fusion; H9/HIV-1IIIB (Calcein AM) with MT-2 cells, 37 °C, 2 h. As for the experimental part: A dye transfer assay was used to detect HIV-1 Env-mediated cell-cell fusion as described previously. […] For each well of the 96-well plate, 50 μL 2 × 10^4/mL labeled H9/HIV-1IIIB cells were then incubated with 100 μL 1 × 10^5/mL MT-2 cells at 37 °C for 2 h in the presence or absence of the tested peptide at graded concentrations. […] The IC50 values were calculated by using the Calcusyn computer program (Biosoft, Ferguson, MO, USA).

For data set [2] the following is noted: clinical use; cited from earlier work.
The next data set concerns HIV-1 WT. The conditions noted are these: WT of T20-resistant panel; p24 ELISA. The procedure:
(§1) Inhibitory activities of peptides on infection by laboratory-adapted HIV-1 X4 strain IIIB and HIV-1 R5 strain Bal, and HIV-1 clinical strains, as well as T20-, T2635- and HP23-resistant strains, were determined as described previously. For each well of the 96-well plate, 104 MT-2 cells or CEMx174 5.25 M7 cells with graded concentrations of peptide were infected by […] TCID50 of the HIV-1 virus X4 or R5 strains, respectively. After overnight culture, the medium was replaced with fresh RPMI 1640 medium containing 10% FBS. Fifty microliters of culture supernatant were collected from each well on the fourth day for MT-2 cells and the seventh day for CEMx174 5.25 M7 cells. The supernatant was mixed with equal volumes of 5% Triton X-100. The p24 antigen was detected by ELISA as previously described. IC50 values were calculated using the Calcusyn software program (Biosoft, Ferguson, MO, USA).

The next data set has as its system HIV-1 Q66R. The settings on record: T2635-resistant Q66R; p24 ELISA. The procedure:
as §1
On the technique in general: ELISA stands for enzyme-linked immunosorbent assay.

The next data set has as its system 92UG024 (D, X4). The settings on record: clinical isolate 92UG024 (D, X4); MT-2 cells, p24 ELISA day 4. The procedure:
as §1

The subject of a further data set is HIV-1 K90E/N126K. The settings on record: T2635-resistant K90E/N126K; p24 ELISA. As for the experimental part:
as §1

The subject of another data set is HIV-1 N113E. The settings on record: T2635-resistant N113E; p24 ELISA. As for the experimental part: as §1
The next data set relates to HIV-1 D36G/E49K/N126K. The conditions noted are these: HP23-resistant D36G/E49K/N126K; p24 ELISA. As for the experimental part: as §1
The next data set concerns HIV-1 H3C. The settings on record: T2635-resistant H3C; p24 ELISA. The procedure:
as §1

Another data set has as its system HIV-1 N126K. The conditions noted are these: T2635-resistant N126K; p24 ELISA. As for the experimental part: as §1
The test system of another data set is HIV-1 Bal (R5 virus). The conditions noted are these: read-out: IC50, HIV-1 Bal infection; CEMx174 5.25 M7 cells; p24 ELISA, seventh day. As for the experimental part:
as §1

In another data set the test system is 90US_873 (B, R5). The conditions noted are these: clinical isolate 90US_873 (B, R5); CEMx174 5.25 M7 cells, p24 ELISA day 7. The procedure:
as §1

For the next data set, the system named is HIV-1 K154Q. The conditions noted are these: T2635-resistant K154Q; p24 ELISA. As for the experimental part:
as §1

The test system of a further data set is 92TH009 (A/E, R5). The settings on record: clinical isolate 92TH009 (A/E, R5); CEMx174 5.25 M7 cells, p24 ELISA day 7. The procedure: as §1
The test system of a further data set is HIV-1 V38A, N42T. The settings on record: T20-resistant V38A, p24 ELISA. The procedure:
as §1

The subject of a further data set is HIV-1 V38A. The settings on record: T20-resistant V38A; p24 ELISA. As for the experimental part:
as §1

Another data set deals with HIV-1 wild-type. The conditions noted are these: p24 ELISA. As for the experimental part: as §1
The subject of another data set is 93BR020 (F, X4/R5). The conditions noted are these: clinical isolate 93BR020 (F, X4/R5); p24 ELISA. The procedure:
as §1

The next data set has as its system HIV-1 Q79E/N126K. The conditions noted are these: T2635-resistant Q79E/N126K; p24 ELISA. As for the experimental part:
as §1

For a further data set, the system named is KER2018 (A, R5). The conditions noted are these: clinical isolate KER2018 (A, R5); CEMx174 5.25 M7 cells, p24 ELISA day 7. As for the experimental part:
as §1

In the next data set the test system is HIV-1 V38A, N42D. The settings on record: T20-resistant V38A, p24 ELISA. As for the experimental part: as §1
The next data set has as its system NP1525 (A/E, X4/R5). The conditions noted are these: clinical isolate NP1525 (A/E, X4/R5); p24 ELISA. As for the experimental part:
as §1

The next data set concerns BK132/GS009 (B, X4). The conditions noted are these: clinical isolate BK132/GS009 (B, X4); MT-2 cells, p24 ELISA day 4. As for the experimental part: as §1
In the next data set the test system is 93IN101 (C, R5). The settings on record: clinical isolate 93IN101 (C, R5); CEMx174 5.25 M7 cells, p24 ELISA day 7. The procedure:
as §1

The subject of a further data set is HIV-1 E49K. The settings on record: HP23-resistant E49K; p24 ELISA. The procedure: as §1
A further data set has as its system HIV-1 K90E. The conditions noted are these: T2635-resistant K90E; p24 ELISA. As for the experimental part:
as §1

The next data set relates to HIV-1 Q66R/N113E. The settings on record: T2635-resistant Q66R/N113E; p24 ELISA. As for the experimental part:
as §1

A further data set deals with HIV-1 IIIB (X4 virus). The settings on record: read-out: IC50, HIV-1 IIIB infection; MT-2 cells; p24 ELISA, fourth day. The procedure:
as §1

The next data set relates to HIV-1 E49K/N126K. The conditions noted are these: HP23-resistant E49K/N126K; p24 ELISA. The procedure: as §1
A further data set has as its system US4GS007 (B, R5). The conditions noted are these: clinical isolate US4GS007 (B, R5); CEMx174 5.25 M7 cells, p24 ELISA day 7. As for the experimental part: as §1
A further data set deals with HIV-1 Q79E. The conditions noted are these: T2635-resistant Q79E; p24 ELISA. The procedure: as §1
In data set [3] the test system is HIV-1 L34S/D36G/E49K/E136G. The settings on record: HP23-resistant L34S/D36G/E49K/E136G; p24 ELISA. The procedure:
as §1

Another data set concerns HIV-1 V38E, N42S. The settings on record: T20-resistant V38E, p24 ELISA. The procedure: as §1
Another data set relates to KNH1135 (A, R5). The conditions noted are these: clinical isolate KNH1135 (A, R5); CEMx174 5.25 M7 cells, p24 ELISA day 7. As for the experimental part:
as §1

Another data set relates to HIV-1 A6V. The settings on record: T2635-resistant A6V; p24 ELISA. The procedure: as §1
Data set [4] deals with T1, 6-HB formation between N46 and C34 (Human immunodeficiency virus type 1 group M subtype B, UniProt P04578).
T1 construct: NHR peptide N46 (aa 536-581 of NHR)
T1 sequence (P04578 536-581): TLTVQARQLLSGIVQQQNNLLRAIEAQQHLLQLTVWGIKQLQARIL
As to the kind of experiment: Inhibition of 6-HB formation between N46 and C34 (ELISA, NC-1). It counts as biochemical, HIV-1. The settings on record: ELISA with NC-1 mAb; 1 μM N46; 37 °C 30 min then 1 h; A450. As for the experimental part:
The inhibitory activity of peptides on 6-HB formation was measured by a modified ELISA as previously described. Briefly, a 96-well polystyrene plate (Costar, Corning Inc., Corning, NY, USA) was coated with 50 μL 2 μg/mL NY364 (a polyclonal antibody for HIV-1 gp41 subunit) in 0.1 M Tris buffer (pH 8.8). A mixture of 1 μM N46 and C-peptide with graded concentrations was added to the coated plate after incubation at 37 °C for 30 min. After another 1 hour incubation at 37 °C, the plate was washed with washing buffer (PBS containing 0.1% Tween 20) three times and refilled by 50 μL 1 μg/mL NC-1 (a monoclonal antibody specific for HIV-1 gp41 6-HB formed by NHR and CHR). Afterwards, 50 μL of horseradish peroxidase (HRP)-labeled rabbit anti-mouse antibody (Sigma, St. Louis, MO, USA) (1:4000 diluted) were added to the wells of plate, followed by incubation for 1 h and washing. Finally, the substrate 3,3,5,5-tetramethylbenzidine (TMB, Sigma, St. Louis, MO, USA) was added. Absorbance at 450 nm (A450) was tested by an ELISA reader (Ultra 384, Tecan, NC, USA).

Where two headings read alike, the source gives them in different places. Where a SMILES comes first, the peptide text is derived from it.

As for enfuvirtide, the IC50 (commonly the concentration needed to halve the response being measured) in data set [1] was 16.6 nM. Moreover, in data set [2], the “half-life (in words)” value is on record as “short half-life” and the “oral bioavailability (in words)” value is recorded as “lack of oral bioavailability”.
Take `CC[C@H](C)[C@H](NC(=O)[C@H](CCC(=O)O)NC(=O)[C@H](CCC(=O)O)NC(=O)[C@@H](NC(=O)[C@H](CCCCN)NC(=O)[C@H](CCCCN)NC(=O)[C@@H](NC(=O)[C@H](Cc1ccc(O)cc1)NC(=O)[C@H](CCC(=O)O)NC(=O)[C@H](CCC(=O)O)NC(=O)[C@@H](NC(=O)[C@H](CCCCN)NC(=O)[C@H](CCCCN)NC(=O)[C@H](CCC(=O)O)NC(=O)[C@H](Cc1c[nH]c2ccccc12)NC(=O)[C@H](CCC(=O)O)NC(=O)[C@H](CCC(=O)O)NC(=O)[C@H](Cc1c[nH]c2ccccc12)NC(=O)[C@@H](NC(=O)[C@H](CCSC)NC(=O)[C@@H](N)CCC(=O)O)[C@@H](C)O)[C@@H](C)CC)[C@@H](C)O)[C@@H](C)CC)C(=O)N[C@@H](CC(C)C)C(=O)N[C@@H](CCCCN)C(=O)O` [HP23] (H-EMTWEEWEKKIEEYTKKIEEILK-OH): the IC50 in the data set with HIV-1 WT was 3.1 ± 0.1 nM; with HIV-1 Q66R, 2.8 ± 0.1 nM; with 92UG024 (D, X4), 3.5 ± 0.2 nM; with HIV-1 K90E/N126K, 4.2 ± 0.3 nM; in the data set on HIV-1 N113E, 2.3 ± 0.5 nM; with HIV-1 D36G/E49K/N126K it was over 60 nM. Also, the IC50 was 5.4 ± 0.4 nM in the data set with HIV-1 H3C; 8.6 ± 0.4 nM in the data set with HIV-1 N126K; 5.96 nM in the data set with HIV-1 Bal (R5 virus); 3.4 ± 0.6 nM in the data set on 90US_873 (B, R5); 7.4 ± 0.4 nM in the data set with HIV-1 K154Q; 0.8 ± 0.2 nM in the data set with 92TH009 (A/E, R5). The IC50 in the data set on HIV-1 V38A, N42T is 1.5 ± 0.3 nM; in the data set with HIV-1 V38A, 2.1 ± 0.7 nM; in the data set on HIV-1 wild-type (wild-type of HP23-resistant panel) it was 3.3 ± 0.3 nM; in the data set with HIV-1 wild-type (wild-type of T2635-resistant panel), 2.8 ± 0.2 nM; in the data set on 93BR020 (F, X4/R5) it was 4.5 ± 0.2 nM; in the data set on HIV-1 Q79E/N126K it was 5.2 ± 0.4 nM. The IC50 is 1.9 ± 0.2 nM with KER2018 (A, R5); 2.9 ± 0.3 nM in the data set on HIV-1 V38A, N42D; 9.5 ± 0.6 nM in the data set with NP1525 (A/E, X4/R5); 7.2 ± 0.5 nM in the data set on BK132/GS009 (B, X4); 3.7 ± 0.3 nM in the data set on 93IN101 (C, R5); 13.4 ± 0.7 nM in the data set with HIV-1 E49K. For the same molecule, the IC50 with HIV-1 K90E was determined as 9.4 ± 0.3 nM; in the data set on HIV-1 Q66R/N113E it was 3.6 ± 0.3 nM; in the data set on HIV-1 IIIB (X4 virus), 1.68 nM; with HIV-1 E49K/N126K, 53.8 ± 1.2 nM; in the data set with US4GS007 (B, R5), 3.9 ± 0.6 nM; in the data set on HIV-1 Q79E it was 4.2 ± 0.7 nM. The IC50 in data set [3] was over 60 nM; in the data set with HIV-1 V38E, N42S, 6.2 ± 0.3 nM; in the data set on KNH1135 (A, R5), 2.2 ± 0.3 nM; in the data set with HIV-1 A6V, 1.6 ± 0.5 nM; in [1] it was 5.12 nM; in data set [4], 3720 nM.

Values taken from article PMC6150406, “Adding an Artificial Tail—Anchor to a Peptide-Based HIV-1 Fusion Inhibitor for Improvement of Its Potency and Resistance Profile” (Molecules : A Journal of Synthetic Chemistry and Natural …, 2017).
